In PubChem BioAssay AID1963837 (Molecular Pharmacology Branch, DTP, NCI, 2024):
pIC50: −log10 of the molar value.

What follows are molecules tested on 843126-344-R-J1-PDC complex spheroid viability (assay: Anticancer human tumor 843126-344-R-J1-PDC patient-derived melanoma cell line growth inhibition [POLQ]). Settings: curve of first compound; second compound 0.0316 µM.
Method in brief: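 Three-cell-type spheroids modelling solid tumor plus stroma served as the readout system; POL inhibitors were tested individually and in combination, concentration ranges set by clinical Cmax where known.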

Row | SMILES | pIC50
1 | C#Cc1c(F)ccc2cc(O)cc(-c3ncc4c(N5CC6CCC(C5)N6)nc(OCC56CCCN5CC(F)C6)nc4c3F)c12 (stereo unspecified) + Nc1ccc(C#CCN(C(=O)Cc2ncc(C(F)(F)F)cc2C(F)(F)F)c2ccc(F)cc2)nn1 | < 5.00
2 | CC1COCCN1c1cc(C2(O)CC3CCC(C2)O3)c2cnn(-c3ccn[nH]3)c2n1 (stereo unspecified) + Nc1ccc(C#CCN(C(=O)Cc2ncc(C(F)(F)F)cc2C(F)(F)F)c2ccc(F)cc2)nn1 | 6.41
3 | CCc1cc2c(N3CCc4c(cc(Cn5ccnc5)cc4-c4cn(C)nc4C(F)(F)F)C3=O)cc(C)nc2c(OC)n1 + Nc1ccc(C#CCN(C(=O)Cc2ncc(C(F)(F)F)cc2C(F)(F)F)c2ccc(F)cc2)nn1 | < 5.00
4 | COc1cc2cc(C(=O)CCC(=O)O)sc2cc1OC + Nc1ccc(C#CCN(C(=O)Cc2ncc(C(F)(F)F)cc2C(F)(F)F)c2ccc(F)cc2)nn1 | < 5.00
5 | O=C(Nc1ccc(O)c(NS(=O)(=O)c2ccc(F)cc2)c1)c1ccc(-c2ccccc2)cc1 + Nc1ccc(C#CCN(C(=O)Cc2ncc(C(F)(F)F)cc2C(F)(F)F)c2ccc(F)cc2)nn1 | < 5.00

Same assay, conditions: curve of first compound; second compound 0.1 µM

Row | SMILES | pIC50
6 | C#Cc1c(F)ccc2cc(O)cc(-c3ncc4c(N5CC6CCC(C5)N6)nc(OCC56CCCN5CC(F)C6)nc4c3F)c12 (stereo unspecified) + Nc1ccc(C#CCN(C(=O)Cc2ncc(C(F)(F)F)cc2C(F)(F)F)c2ccc(F)cc2)nn1 | < 5.00
7 | CC1COCCN1c1cc(C2(O)CC3CCC(C2)O3)c2cnn(-c3ccn[nH]3)c2n1 (stereo unspecified) + Nc1ccc(C#CCN(C(=O)Cc2ncc(C(F)(F)F)cc2C(F)(F)F)c2ccc(F)cc2)nn1 | 6.36
8 | CCc1cc2c(N3CCc4c(cc(Cn5ccnc5)cc4-c4cn(C)nc4C(F)(F)F)C3=O)cc(C)nc2c(OC)n1 + Nc1ccc(C#CCN(C(=O)Cc2ncc(C(F)(F)F)cc2C(F)(F)F)c2ccc(F)cc2)nn1 | < 5.00
9 | COc1cc2cc(C(=O)CCC(=O)O)sc2cc1OC + Nc1ccc(C#CCN(C(=O)Cc2ncc(C(F)(F)F)cc2C(F)(F)F)c2ccc(F)cc2)nn1 | < 5.00
10 | O=C(Nc1ccc(O)c(NS(=O)(=O)c2ccc(F)cc2)c1)c1ccc(-c2ccccc2)cc1 + Nc1ccc(C#CCN(C(=O)Cc2ncc(C(F)(F)F)cc2C(F)(F)F)c2ccc(F)cc2)nn1 | < 5.00

Same assay, conditions: curve of first compound; second compound 0.316 µM

Row | SMILES | pIC50
11 | C#Cc1c(F)ccc2cc(O)cc(-c3ncc4c(N5CC6CCC(C5)N6)nc(OCC56CCCN5CC(F)C6)nc4c3F)c12 (stereo unspecified) + Nc1ccc(C#CCN(C(=O)Cc2ncc(C(F)(F)F)cc2C(F)(F)F)c2ccc(F)cc2)nn1 | < 5.00
12 | CC1COCCN1c1cc(C2(O)CC3CCC(C2)O3)c2cnn(-c3ccn[nH]3)c2n1 (stereo unspecified) + Nc1ccc(C#CCN(C(=O)Cc2ncc(C(F)(F)F)cc2C(F)(F)F)c2ccc(F)cc2)nn1 | 6.43
13 | CCc1cc2c(N3CCc4c(cc(Cn5ccnc5)cc4-c4cn(C)nc4C(F)(F)F)C3=O)cc(C)nc2c(OC)n1 + Nc1ccc(C#CCN(C(=O)Cc2ncc(C(F)(F)F)cc2C(F)(F)F)c2ccc(F)cc2)nn1 | < 5.00
14 | COc1cc2cc(C(=O)CCC(=O)O)sc2cc1OC + Nc1ccc(C#CCN(C(=O)Cc2ncc(C(F)(F)F)cc2C(F)(F)F)c2ccc(F)cc2)nn1 | < 5.00
15 | O=C(Nc1ccc(O)c(NS(=O)(=O)c2ccc(F)cc2)c1)c1ccc(-c2ccccc2)cc1 + Nc1ccc(C#CCN(C(=O)Cc2ncc(C(F)(F)F)cc2C(F)(F)F)c2ccc(F)cc2)nn1 | < 5.00

Same assay, conditions: curve of first compound; second compound 1 µM

Row | SMILES | pIC50
16 | C#Cc1c(F)ccc2cc(O)cc(-c3ncc4c(N5CC6CCC(C5)N6)nc(OCC56CCCN5CC(F)C6)nc4c3F)c12 (stereo unspecified) + Nc1ccc(C#CCN(C(=O)Cc2ncc(C(F)(F)F)cc2C(F)(F)F)c2ccc(F)cc2)nn1 | < 5.00
17 | CC1COCCN1c1cc(C2(O)CC3CCC(C2)O3)c2cnn(-c3ccn[nH]3)c2n1 (stereo unspecified) + Nc1ccc(C#CCN(C(=O)Cc2ncc(C(F)(F)F)cc2C(F)(F)F)c2ccc(F)cc2)nn1 | 6.51
18 | CCc1cc2c(N3CCc4c(cc(Cn5ccnc5)cc4-c4cn(C)nc4C(F)(F)F)C3=O)cc(C)nc2c(OC)n1 + Nc1ccc(C#CCN(C(=O)Cc2ncc(C(F)(F)F)cc2C(F)(F)F)c2ccc(F)cc2)nn1 | < 5.00
19 | COc1cc2cc(C(=O)CCC(=O)O)sc2cc1OC + Nc1ccc(C#CCN(C(=O)Cc2ncc(C(F)(F)F)cc2C(F)(F)F)c2ccc(F)cc2)nn1 | < 5.00
20 | O=C(Nc1ccc(O)c(NS(=O)(=O)c2ccc(F)cc2)c1)c1ccc(-c2ccccc2)cc1 + Nc1ccc(C#CCN(C(=O)Cc2ncc(C(F)(F)F)cc2C(F)(F)F)c2ccc(F)cc2)nn1 | < 5.00

Same assay, conditions: curve of first compound; second compound 3.16 µM

Row | SMILES | pIC50
21 | C#Cc1c(F)ccc2cc(O)cc(-c3ncc4c(N5CC6CCC(C5)N6)nc(OCC56CCCN5CC(F)C6)nc4c3F)c12 (stereo unspecified) + Nc1ccc(C#CCN(C(=O)Cc2ncc(C(F)(F)F)cc2C(F)(F)F)c2ccc(F)cc2)nn1 | < 5.00
22 | CC1COCCN1c1cc(C2(O)CC3CCC(C2)O3)c2cnn(-c3ccn[nH]3)c2n1 (stereo unspecified) + Nc1ccc(C#CCN(C(=O)Cc2ncc(C(F)(F)F)cc2C(F)(F)F)c2ccc(F)cc2)nn1 | 6.46
23 | CCc1cc2c(N3CCc4c(cc(Cn5ccnc5)cc4-c4cn(C)nc4C(F)(F)F)C3=O)cc(C)nc2c(OC)n1 + Nc1ccc(C#CCN(C(=O)Cc2ncc(C(F)(F)F)cc2C(F)(F)F)c2ccc(F)cc2)nn1 | < 5.00
24 | COc1cc2cc(C(=O)CCC(=O)O)sc2cc1OC + Nc1ccc(C#CCN(C(=O)Cc2ncc(C(F)(F)F)cc2C(F)(F)F)c2ccc(F)cc2)nn1 | < 5.00
25 | O=C(Nc1ccc(O)c(NS(=O)(=O)c2ccc(F)cc2)c1)c1ccc(-c2ccccc2)cc1 + Nc1ccc(C#CCN(C(=O)Cc2ncc(C(F)(F)F)cc2C(F)(F)F)c2ccc(F)cc2)nn1 | < 5.00

Same assay, conditions: curve of first compound; second compound 10 µM

Row | SMILES | pIC50
26 | C#Cc1c(F)ccc2cc(O)cc(-c3ncc4c(N5CC6CCC(C5)N6)nc(OCC56CCCN5CC(F)C6)nc4c3F)c12 (stereo unspecified) + Nc1ccc(C#CCN(C(=O)Cc2ncc(C(F)(F)F)cc2C(F)(F)F)c2ccc(F)cc2)nn1 | < 5.00
